Assay results: the NIST ThermoML archive (doi:10.1021/je060068f)
Numbers after ± are expanded uncertainties.

Settings: Liquid; pulse-heating method

Which results are given for `CCCCCOC(=O)c1ccccc1C(=O)OCCCCC`?
Critical pressure: 1430 ± 50 kPa; Critical temperature: 811 ± 9 K

Which Critical pressure does the source give for `CCCOC(=O)c1ccccc1C(=O)OCCC` [1,2-benzenedicarboxylic acid dipropyl ester] here?
Its Critical pressure is 1900 ± 70 kPa.

And the Critical temperature?
Its Critical temperature is 784 ± 9 K.

What does the source list for `CCCCC(CC)COC(=O)c1ccccc1C(=O)OCC(CC)CCCC` (centres undefined) [bis(2-ethylhexyl) 1,2-benzenedicarboxylate]?
Critical pressure: 1070 ± 40 kPa; Critical temperature: 835 ± 9 K

For `CCCCOC(=O)c1ccccc1C(=O)OCCCC` [dibutyl phthalate], which Critical pressure is on record?
The Critical pressure was 1660 ± 60 kPa.

What about the Critical temperature of the same molecule?
The Critical temperature was 797 ± 9 K.

With `CCCCCCCCCCOC(=O)c1ccccc1C(=O)OCCCCCCCCCC` [didecyl phthalate] as the molecule, how does the Critical pressure read?
Its Critical pressure is 940 ± 30 kPa.

And the Critical temperature?
The Critical temperature was 870 ± 10 K.

For `CCOC(=O)c1ccccc1C(=O)OCC` [diethyl phthalate], which Critical pressure is on record?
The Critical pressure was 2260 ± 80 kPa.

What about the Critical temperature of the same molecule?
The Critical temperature was 776 ± 9 K.

With `CCCCCCCOC(=O)c1ccccc1C(=O)OCCCCCCC` [diheptyl phthalate] as the molecule, how does the Critical pressure read?
Its Critical pressure is 1240 ± 40 kPa.

And the Critical temperature?
Its Critical temperature is 830 ± 9 K.

Which Critical pressure does the source give for `CCCCCCOC(=O)c1ccccc1C(=O)OCCCCCC` [dihexyl phthalate] here?
Its Critical pressure is 1340 ± 50 kPa.

What about the Critical temperature of the same molecule?
Its Critical temperature is 817 ± 9 K.

For `COC(=O)c1ccccc1C(=O)OC` [dimethyl 1,2-benzenedicarboxylate], which Critical pressure is on record?
The Critical pressure was 2770 ± 100 kPa.

What about the Critical temperature of the same molecule?
Its Critical temperature is 772 ± 9 K.

Which results are given for `CCCCCCCCCOC(=O)c1ccccc1C(=O)OCCCCCCCCC` [dinonyl phthalate]?
Critical pressure: 1020 ± 40 kPa; Critical temperature: 858 ± 9 K

Which results are given for `CCCCCCCCOC(=O)c1ccccc1C(=O)OCCCCCCCC` [dioctyl 1,2-benzenedicarboxylate]?
Critical pressure: 1080 ± 40 kPa; Critical temperature: 840 ± 9 K

Which Critical pressure does the source give for `CCCCCCCCCCCOC(=O)c1ccccc1C(=O)OCCCCCCCCCCC` [diundecyl phthalate] here?
Its Critical pressure is 890 ± 30 kPa.

What about the Critical temperature of the same molecule?
The Critical temperature was 886 ± 10 K.
